Data taken from patent US9221834B2 (Merck Sharp & Dohme Corp., priority 2010, dated 2015).
Where a name gives a salt, the structure may show the parent alone.

Target: T1, recombinant CETP (rCETP) (Homo sapiens, UniProt P11597)
T1 sequence (P11597 18-493): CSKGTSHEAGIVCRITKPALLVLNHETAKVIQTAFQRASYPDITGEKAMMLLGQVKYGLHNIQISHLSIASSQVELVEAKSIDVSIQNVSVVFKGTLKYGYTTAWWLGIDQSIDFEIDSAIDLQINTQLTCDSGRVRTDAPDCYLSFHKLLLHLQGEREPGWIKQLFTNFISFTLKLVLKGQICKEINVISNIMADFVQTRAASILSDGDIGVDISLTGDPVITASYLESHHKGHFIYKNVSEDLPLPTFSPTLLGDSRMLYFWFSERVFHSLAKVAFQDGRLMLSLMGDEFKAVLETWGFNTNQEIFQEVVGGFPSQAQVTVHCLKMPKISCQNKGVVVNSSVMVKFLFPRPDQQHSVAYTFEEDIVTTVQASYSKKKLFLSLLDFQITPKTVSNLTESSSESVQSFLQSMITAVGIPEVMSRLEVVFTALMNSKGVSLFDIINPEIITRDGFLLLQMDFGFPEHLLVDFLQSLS
Test: RTA assay using recombinant CETP (2% RTA)
Assay type: biochemical
Settings: RTA assay in 2% human serum; read-out: IC50
In short: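 Compounds preincubated 1 h at 37 °C with assay cocktail (CETP buffer: 50 mM Tris pH 7.4, 100 mM NaCl, 1 mM EDTA; human HDL acceptor); transfer started with [3H]cholesteryl oleate- or [3H]triolein-labelled LDL, 60 min at 37 °C. LDL PEG-precipitated; supernatant counted by scintillation, blank-corrected; IC50 from 4-parameter sigmoidal fit of % inhibition vs DMSO control.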

Row | SMILES | IC50
1 | COc1ccc(CCc2ncc[nH]2)cc1-c1ccc(N2CCC2)nc1CN1C(=O)O[C@H](c2cc(C(F)(F)F)cc(C(F)(F)F)c2)[C@@H]1C [Example 268] | 91 nM
2 | COc1ccc(CCc2n(C)cc[n+]2C)cc1-c1ccc(N2CCC2)nc1CN1C(=O)O[C@H](c2cc(C(F)(F)F)cc(C(F)(F)F)c2)[C@@H]1C [Example 269, 2-(2-{3-[6-azetidin-1-yl-2-({(4S,5R)-5-[3,5-bis(trifluoromethyl)phenyl]-4-methyl-2-oxo-1,3-oxazolidin-3-yl}methyl)pyridin-3-yl]-4-methoxyphenyl}ethyl)-1,3-dimethyl-1H-imidazol-3-ium formate] | 175 nM
3 | COc1ccc(CCc2nc[nH]n2)cc1-c1ccc(N2CCC2)nc1CN1C(=O)O[C@H](c2cc(C(F)(F)F)cc(C(F)(F)F)c2)[C@@H]1C [Example 270, (4S,5R)-3-[(6-azetidin-1-yl-3-{2-methoxy-5-[2-(1H-1,2,4-triazol-3-yl)ethyl]phenyl}pyridin-2-yl)methyl]-5-[3,5-bis(trifluoromethyl)phenyl]-4-methyl-1,3-oxazolidin-2-one] | 7 nM
4 | COc1ccc(CCC(=O)O)cc1-c1ccc(N2CCCCC2)nc1CN1C(=O)O[C@H](c2cc(C(F)(F)F)cc(C(F)(F)F)c2)[C@@H]1C [Example 271, 3-{3-[2-({(4S,5R)-5-[3,5-bis(trifluoromethyl)phenyl]-4-methyl-2-oxo-1,3-oxazolidin-3-yl}methyl)-6-piperidin-1-ylpyridin-3-yl]-4-methoxyphenyl}propanoic acid] | 96 nM
5 | COc1ccc([C@H]2CC[C@H](C(=O)O)CC2)cc1-c1cnc(N2CCC2)nc1CN1C(=O)O[C@H](c2cccc(C(F)(F)F)c2)[C@@H]1C [Example 272] | 165 nM
6 | COc1ccc(CCC(=O)O)cc1-c1cnc(N2CCC2)nc1CN1C(=O)O[C@H](c2cccc(C(F)(F)F)c2)[C@@H]1C [Example 273] | 2300 nM
7 | COc1ccc(C2C[C@H]2C(=O)O)cc1-c1cnc(N2CCC2)nc1CN1C(=O)O[C@H](c2cccc(C(F)(F)F)c2)[C@@H]1C (stereo partly shown) [Example 274] | 1620 nM
8 | Cc1cc(C(=O)O)ccc1-c1cccc(-c2cnc(N3CCC3)nc2CN2C(=O)O[C@H](c3cccc(C(F)(F)F)c3)[C@@H]2C)c1 [Example 275] | 605 nM
9 | Cc1cc(C(=O)O)ccc1-c1cc(-c2cnc(N3CCC3)nc2CN2C(=O)O[C@H](c3cccc(C(F)(F)F)c3)[C@@H]2C)ccc1F [Example 276] | 76 nM
10 | COc1cc(F)c(-c2ccc(C(=O)O)cc2C)cc1-c1cnc(N2CCC2)nc1CN1C(=O)O[C@H](c2ccc(F)cc2)[C@@H]1C [Example 279] | 189 nM
11 | C[C@H]1[C@@H](c2cc(C(F)(F)F)cc(C(F)(F)F)c2)OC(=O)N1Cc1nc(N2CCC2)ncc1-c1cc(CCC(=O)O)ccc1Cl [Example 280] | 23 nM
12 | COc1ccc([C@H]2CC[C@H](C(=O)O)CC2)cc1-c1ccc(N2CC(F)(F)C2)nc1CN1C(=O)O[C@H](c2cc(F)cc(C(F)(F)F)c2)[C@@H]1C [Example 283, trans-4-{3-[6-(3,3-difluoroazetidin-1-yl)-2-({(4S,5R)-5-[3-fluoro-5-(trifluoromethyl)phenyl]-4-methyl-2-oxo-1,3-oxazolidin-3-yl}methyl)pyridin-3-yl]-4-methoxyphenyl}cyclohexanecarboxylic acid] | 9 nM
13 | COc1ccc(-n2ncc(C(=O)O)c2C(F)(F)F)cc1-c1c(C)cc(N2CCC2)nc1CN1C(=O)O[C@H](c2cc(C(F)(F)F)cc(C(F)(F)F)c2)[C@@H]1C [Example 285] | 4 nM
14 | COc1c(F)cc(-c2ccc(C(=O)O)cc2C)cc1-c1c(C)cc(N2CCC2)nc1CN1C(=O)O[C@H](c2cc(C(F)(F)F)cc(C(F)(F)F)c2)[C@@H]1C [Example 287] | 3 nM
15 | Cc1cc(C(=O)O)ccc1-c1cc(F)cc(-c2ccc(N3CCC3)nc2CN2C(=O)O[C@H](c3cc(C(F)(F)F)cc(C(F)(F)F)c3)[C@@H]2C)c1 [Example 288] | 11 nM
16 | COc1ccc(-c2ccc(C(=O)O)cc2C)cc1-c1ccc(N2CCC2)nc1CN1C(=O)O[C@H](c2cc(C(F)(F)F)cc(C(F)(F)F)c2)[C@@H]1C [Example 289] | 7 nM
17 | C[C@H]1[C@@H](c2cc(F)cc(C(F)(F)F)c2)OC(=O)N1Cc1nc(N2CC(F)(F)C2)ncc1-c1cc([C@H]2CC[C@H](C(=O)O)CC2)ccc1Cl [Example 291] | 49 nM
18 | COc1ccc([C@H]2CC[C@H](C(=O)O)CC2)cc1-c1c(C)cc(N2CCC2)nc1CN1C(=O)O[C@H](c2cc(F)cc(C(F)(F)F)c2)[C@@H]1C [Example 292] | 7 nM
19 | COc1ccc([C@H]2CC[C@H](C(=O)O)CC2)cc1-c1ccc(N2CC(F)(F)C2)nc1CN1C(=O)O[C@H](c2cc(C)cc(C(F)(F)F)c2)[C@@H]1C [Example 293] | 7 nM
20 | COc1ccc([C@H]2CC[C@H](C(=O)O)CC2)cc1-c1ccc(N2CC(F)(F)C2)nc1CN1C(=O)O[C@H](c2cccc(OC(F)(F)F)c2)[C@@H]1C [Example 294] | 102 nM
21 | COc1ccc([C@H]2C[C@H](C(=O)O)C2)cc1-c1ccc(N2CC(F)(F)C2)nc1CN1C(=O)O[C@H](c2cccc(OC(F)(F)F)c2)[C@@H]1C [Example 295] | 114 nM
22 | COc1cc(F)c(-c2ccc(C(=O)O)cc2C)cc1-c1ccc(N2CC(F)(F)C2)nc1CN1C(=O)O[C@H](c2cccc(OC(F)(F)F)c2)[C@@H]1C [Example 296] | 8 nM
23 | COc1ccc(CCC(=O)O)cc1-c1ccc(N2CC(F)(F)C2)nc1CN1C(=O)O[C@H](c2cccc(OC(F)(F)F)c2)[C@@H]1C [Example 297] | 375 nM

Same assay, conditions: value printed with the example; serum level not stated there; read-out: RTA

Row | SMILES | IC50
24 | COc1ccc(-c2ccc(C(=O)O)cc2C)cc1-c1cnc(N2CCC2)nc1CN1C(=O)O[C@H](c2cc(Cl)cc(Cl)c2)[C@@H]1C [Example 302] | 4.43 nM
25 | COc1cc(F)c(C(C)C)cc1-c1cnc(N2CC(F)C2)nc1CN1C(=O)O[C@H](c2cc(C3CC3)cc(C(F)(F)F)c2)[C@@H]1C [Example 303, (4S,5R)-5-[3-cyclopropyl-5-(trifluoromethyl)phenyl]-3-({2-(3-fluoroazetidin-1-yl)-5-[4-fluoro-2-methoxy-5-(propan-2-yl)phenyl]pyrimidin-4-yl}methyl)-4-methyl-1,3-oxazolidin-2-one] | 98 nM

System: not given
Test: not given
Settings: patients treated with anacetrapib; cited from earlier work

Row | SMILES | increase in mortality
26 | COc1cc(F)c(C(C)C)cc1-c1ccc(C(F)(F)F)cc1CN1C(=O)O[C@H](c2cc(C(F)(F)F)cc(C(F)(F)F)c2)[C@@H]1C [anacetrapib] | unlikely

Same assay, conditions: patients, with baseline statin therapy, compared with just a statin; cited from earlier work

Row | SMILES | decrease of LDL-C | increase of HDL-C
27 | COc1cc(F)c(C(C)C)cc1-c1ccc(C(F)(F)F)cc1CN1C(=O)O[C@H](c2cc(C(F)(F)F)cc(C(F)(F)F)c2)[C@@H]1C [anacetrapib] | 40% | 138%
